# Measured values from PMC10692721, “Drug discovery for heart failure targeting myosin-binding protein C” (The Journal of Biological Chemistry, 2023).
# Tests used:
# [1] = test system: TMR-cC0-C2 (C0-C2 fragment of human cMyBP-C); experiment: FLT-TMR concentration-response assay (FLT of TMR on cC0-C2, no actin); type: binding
# Description: (§1) Compounds identified as initial hits were further examined to determine the concentration–response curves for seven conditions ([1]): FMAL-actin alone identified actin-binding compounds that alter the FLT of FMAL-actin ([2]).
# (§2) Fluorescence lifetime (FLT) measurements were acquired using a high-throughput FLT plate reader (Fluorescence Innovations, Inc) ([14], [27]), provided by Photonic Pharma LLC. […] The observed waveforms were analyzed as described previously ([15], [28]).
# (§3) The primary hits were dissolved in DMSO to make a 10 mM stock solution, which was serially diluted in 96-well mother plates. Hits were screened at eight concentrations (0.5–100 μM). […] Compounds (1 μl) were transferred from the mother plates into 384-well plates using a Mosquito HV liquid handler (TTP Labtech Ltd, Hertfordshire, UK). The same procedure of dispensing as for the pilot screening was applied in the concentration-response assays. Concentration dependence of the FLT-FRET (E/EDMSO) or FLT-TMR (Δτ) change data was fit to a Hill equation only under certain conditions to help guide the eye (Fig. 4).
# [2] = test system: PKA-phosphorylated TMR-cC0-C2 (cC0-C2#P); experiment: FLT-TMR concentration-response assay, PKA-phosphorylated cC0-C2; type: binding, human
# Description: as §1, §2, §3
# [3] = test system: TMR-fC1-C2 (C1-C2 of fast skeletal MyBP-C); experiment: FLT-TMR concentration-response assay, fC1-C2; type: binding
# Description: as §1, §2, §3
# [4] = test system: FMAL-actin plus TMR-cC0-C2; experiment: Selleck library HTS, 473 nm excitation (FLT of FMAL-actin with TMR-cC0-C2, FLT-FRET); type: binding, human; conditions: for 473-nm Δτ, Repeat 1 / 473-nm Δτ, Repeat 2: initial screen, 30 μM compound; for 473-nm z-score (based on avg Δτ): robust z-score, hit threshold ±4, 30 μM compound
# Summary of the method: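 Donor fluorescence lifetime was then recorded. Waveforms were fit to a single exponential, and ΔFLT was obtained after a moving-median plate-gradient correction (half-row window), rescaled by the median DMSO lifetime.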
# [5] = test system: TMR-cC0-C2; experiment: Selleck library HTS, 532 nm excitation (FLT of TMR-cC0-C2 in presence of FMAL-actin); type: binding, human; conditions: for 532-nm Δτ, Repeat 1 / 532-nm Δτ, Repeat 2: initial screen, 30 μM compound; for 532-nm z-score (based on avg Δτ): robust z-score, hit threshold ±4, 30 μM compound
# [6] = test system: rabbit fast skeletal (psoas) myofibrils; experiment: Skeletal myofibril ATPase assay; type: biochemical; conditions: 50 μM compound, pCa 8 to pCa 4
# Description: Rabbit psoas and bovine cardiac myofibrils were prepared as described in our previous study ([17]). An enzyme-coupled, NADH-linked ATPase assay was used to measure skeletal and cardiac myofibril ATPase activity in 96-well microplates at 23 °C. Ionic strength was maintained below 0.2 M, so myofilaments remained insoluble and stable ([32]). To achieve optimal enzymatic activities, buffers for skeletal and cardiac myofibrils differed slightly ([33], [34]): skeletal in 50 mM MOPS, 100 mM KCl, 5 mM MgCl2, 1 mM EGTA, pH 7.0; cardiac in 20 mM MOPS, 35 mM NaCl, 5 mM MgCl2, 1 mM EGTA, pH 7.0. Each well in the microplate contained an assay mix of 0.84 mM phosphoenolpyruvate, 0.17 mM NADH, 10 U/vol pyruvate kinase, 20 U/vol lactate dehydrogenase. The concentration of free Ca^2+ was controlled by EGTA buffering ([35]). Myofibrils were dispensed in microplates with a multichannel pipette and were incubated with assay mix plus compound of interest for 20 min at 23 °C. The concentration of myofibrils used was 0.01 mg/ml for skeletal and 0.05 mg/ml for cardiac myofibrils. The assay was started upon the addition of ATP, at a final concentration of 2.1 mM (total volume to 200 μl), and absorbance was recorded at 340 nm in a SpectraMax Plus microplate spectrophotometer from Molecular Devices. The steady-state myofibrillar ATPase rate was measured from NADH oxidation, measured as the rate of decrease in absorption at 340 nm for 30 min, with absorption data collected every 15 s. All data and statistical analysis of steady-state kinetics were conducted with the OriginPro program. The results were fitted with the Hill equation:(6) V=V0+(Vmax/1+10^−n∗^(pCa50−pCa)) where V is the ATPase rate and n is the Hill coefficient.
# ATPase activity is reported on the μmol ATP/mg protein/min scale. Average data are presented as mean ± SD. Sample means are derived from three different myofibril preps (N = 3), each done in duplicate (n = 6).
# The effects of compounds on ATPase activity of myofibrils were determined in the presence of 50 μM compound, across a 12-point pCa range from 4.0 (activation) to 8.0 (relaxation). The calcium sensitivity (pCa50) was determined by fitting the curves to the Hill equation. In all experiments, a 1% DMSO-only control was included. The normalized ATPase activity of the selected compounds can be found in Figure 6.
# [7] = test system: FMAL-actin/TMR-cC0-C2 interaction; experiment: FLT-FRET concentration-response assay, FMAL-actin plus TMR-cC0-C2; type: binding, human; conditions: for specificity of FLT-FRET effect for unphosphorylated over phosphorylated cC0-C2: effect on cC0-C2 compared to phosphorylated cC0-C2 (Tables 1 and 2); for effect on FLT-FRET / binding between FMAL-actin and TMR-cC0-C2 (in words): unphosphorylated cC0-C2; for fold effect on increased FRET (or binding) (Table 2): comparison not given
# Description: as §1, §2, §3
# [8] = test system: FMAL-actin/TMR-fC1-C2 interaction; experiment: FLT-FRET concentration-response assay, FMAL-actin plus TMR-fC1-C2; type: binding
# Description: as §1, §2, §3
# [9] = concentration-response, no actin
effect on FLT-FRET / binding between FMAL-actin and TMR-cC0-C2 (in words) [7],effect on FLT-FRET / binding between FMAL-actin and TMR-fC1-C2 (in words) [8],fold effect on increased FRET (or binding) (Table 2) [7],Compound,cC0-C2/cC0-C2#P (ratio of FLT changes) ([1]; 60 μM compound),"cC0-C2 FLT change (% change from DMSO, FLT of TMR-MyBP-C) ([1]; 60 μM compound) [%]","cC0-C2#P FLT change (% change from DMSO, FLT of TMR-MyBP-C) ([2]; 60 μM compound) [%]",cC0-C2/fC1-C2 (ratio of FLT changes) ([3]; 60 μM compound),"fC1-C2 FLT change (% change from DMSO, FLT of TMR-MyBP-C) ([3]; 60 μM compound) [%]","473-nm Δτ, Repeat 1 [4] [ns]","473-nm Δτ, Repeat 2 [4] [ns]",473-nm z-score (based on avg Δτ) [4],"532-nm Δτ, Repeat 1 [5] [ns]","532-nm Δτ, Repeat 2 [5] [ns]",532-nm z-score (based on avg Δτ) [5],specificity of FLT-FRET effect for unphosphorylated over phosphorylated cC0-C2 [7],other results
,,,O=C(Nc1cccc2c(=O)cc(-c3nnn[nH]3)oc12)c1ccc(OCCCCc2ccccc2)cc1 [Pranlukast],0.6,30.7,50.1,0.6,50.3,0.061,0.008,1.95,0.073,0.116,5.80,,effect on skeletal MF ATPase activity (in words) [6]: affected; effect on skeletal MF ATPase activity (in words) ([6]; listed as Pranleukast): affected ATPase
decreased,decreased,,CCCCC(=O)N(Cc1ccc(-c2ccccc2-c2nnn[nH]2)cc1)[C@H](C(=O)O)C(C)C [Valsartan],,,,,,0.149,0.058,5.83,0.000,0.013,0.44,stronger reduction of FRET with non-phosphorylated than phosphorylated,
,,fivefold or greater,C[C@@H]1O[C@@H](O[C@H]2[C@H](O[C@H]3CC[C@@]4(C)[C@@H](CC[C@]5(C)[C@@H]4CC=C4[C@@H]6CC(C)(C)CC[C@]6(C(=O)O)CC[C@]45C)[C@]3(C)CO)OC[C@H](O)[C@@H]2O)[C@H](O)[C@H](O)[C@H]1O [α-Hederin],0.9,6.7,7.1,1.0,6.7,-0.087,-0.051,-3.83,0.105,0.175,8.58,13–54 fold,
decreased,decreased,,Sacubitril/valsartan [Sacubitril/valsartan (LCZ696)],,,,,,0.140,0.095,6.60,-0.025,0.012,-0.37,stronger reduction of FRET with non-phosphorylated than phosphorylated,"effect on FLT of TMR-cC0-C2 (in words) [1, 9]: do not affect; effect on FLT of TMR-fC1-C2 (in words) [3, 9]: do not affect"
,,fivefold or greater,Verteporfin,,,,,,0.093,0.064,4.41,0.065,0.075,4.32,,"cC0-C2/cC0-C2#P (ratio of FLT changes) ([1]; 10 μM compound (∗)): 0.8; cC0-C2 FLT change (% change from DMSO, FLT of TMR-MyBP-C) ([1]; 10 μM compound (∗)): 5.5%; cC0-C2#P FLT change (% change from DMSO, FLT of TMR-MyBP-C) ([2]; 10 μM compound (∗)): 6.8%; cC0-C2/fC1-C2 (ratio of FLT changes) ([3]; 10 μM compound (∗)): 2.2; fC1-C2 FLT change (% change from DMSO, FLT of TMR-MyBP-C) ([3]; 10 μM compound (∗)): 2.5%; specificity of FLT-FRET effect for cC0-C2 over fC1-C2 ([7]; effect on cC0-C2 compared to fC1-C2 (Tables 1 and 2)): 22.4 fold"
